Results on 1 compound are retold here after patent publication US20230134760A1, “CAR AND NRF2 DUAL ACTIVATOR AGENTS FOR CYCLOPHOSPHAMIDE-BASED AND DOXORUBICIN-BASED TREATMENTS OF CANCER” (priority 2020, published 2023).

The test system of data set [1] is BT549 cells. Briefly: Phosphorylated H2AX imaging, BT549 cells from multi-organ co-culture. In kind it is cell-based. Particulars: CPA/DOX + DL7076. The procedure:
Additionally, HPH were cultured in collagen-coated 6-well plates and pre-treated as described in the previous co-culture system. BT549 and H9c2 cells were plated on similar modified coverslips 0.8×10^5 cells and allowed to attach for 24 hours during hepatocyte pre-treatment. […] Following pre-treatment, BT549 coverslips were inserted adjacent to H9c2 coverslips over the sandwich cultured HPH as depicted in FIG. 43a. […] Both BT549 and H9c2 cells were harvested at indicated time points and assess for viability, apoptosis, and DNA damage as detailed further. H9c2 rat cardiomyocytes seeded at 0.8×10^5 in 24-well plates. […] Cells were washed 3× with PBS. […] The oxidation of DFDA to the fluorescent dichlorofluorescein was viewed using fluorescence microscopy (Nikon Eclipse Ti) with a FITC filter at […] and quantified using Brightspot detection for fluorescent detection of triplicate images and normalized to the vehicle control (0.1% DMSO). […] Phosphorylation was calculated through fluorescence intensity all normalized to the vehicle control. […] The coverslips were visualized at 10× magnification using fluorescence microscopy (Nikon Eclipse Ti) and the amount of phosphorylation was quantified as mean intensity using brightspot detection of quadruplet images of the whole well and normalized to the vehicle control (0.1% DMSO).

Data set [2] deals with HO-1. As to the kind of experiment: HO-1 expression in H9c2 cardiomyocytes (RT-PCR, Western blot). It counts as cell-based, rat. As for the experimental part: Immortalized triple negative breast cancer cell lines MDA-MB-231 and BT549 were obtained from ATCC (Rockville, Md.). Additionally, the h9c2 cell line was purchased from ATCC (Rockville, Md.). […] Human iPSC-derived cardiomyocytes were maintained in Mtesr plus and supplemented according to protocol. These cells were treated for 2 hrs or an overnight as indicated. Following a 2 hr pretreatment, cells were co-treated with DOX at indicated concentrations for 6 or 22 hours. Following the overnight treatments, RNA or protein was isolated. HPH were seeded in collagen-coated 24 well plates and pretreated for 24 hrs. BT549 were seeded on inverted coverslips. After a 24 hr pretreatment, hepatocytes were co-administered as indicated and coverslips were inserted. The cell lines were used for less than 60 passages. After 24 h treatment, HPH, BT549, MDA-MB-231, and H9c2 cells were washed and a phenol-chloroform extraction was used to isolate total RNA with the TRIzol reagent (ThermoFisher, Rockford, Ill.). Reverse transcription was performed on extracted RNA (1 μg) to produce cDNA using the High Capacity cDNA Archive kit according to manufacturer's instructions (Applied Biosystems, Foster, Calif.). PCR was performed on an ABI StepOnePlus Real-Time PCR system (Applied Biosystems) using Fast SYBR Green Master Mix (Thermofisher, Rockford, Ill.) to determine gene expression changes. Primer sequences for CYP2B6, CYP3A4, HO-1, and glyceraldehyde-3-phosphate dehydrogenase (GAPDH) are: CYP2B6, [NT] ID NO: 1) and [NT] ID NO: 2); CYP3A4, [NT] ID NO: 3) and [NT] ID NO: 4); HO-1 [NT] ID NO: 5) and [NT] ID NO: 6) GAPDH, [NT] ID NO: 7) and [NT] ID NO: 8). Quantification of expression changes was done by the 2^ΔΔCt method, normalizing to GAPDH as the housekeeping gene and determining the fold change compared to control values (n=3). Protein was harvested using cell lysis buffer (Cell Signaling Technology, Danvers, Mass.) with a complete protease inhibitor cocktail (Roche, Mannheim, Germany) prior to homogenizing via sonification. […]

Data set [3] deals with hCAR. Briefly: hCAR luciferase reporter assay in HepG2 cells (hCAR1+A, CYP2B6-2.2k reporter). In kind it is cell-based, human. As for the experimental part:
HepG2 cells were cultured in 24-well plates (1×10^5 cells/well) and transfected with either a hCAR1+A expression vector (30 ng/well), a CYP2B6-2.2k reporter (60 ng/well) reporter, and pRL-TK (10 ng/well) or a ARE expression vector using X-tremeGENE 9 DNA Transfection Reagent (Sigma-Aldrich). After an overnight transfection, cells were treated with a vehicle control (0.1% DMSO), RIF (10 μM), DL7076 (1 μM, 5 μM, and 10 μM) for 24 hours. Cell lysates were assayed for luciferase activity and normalized against the activity of the Renilla luciferase using a Dual-Luciferase Kit (Promega).
On the technique in general: Reporter assays use an easily measured gene product as a stand-in for the process of interest.

Data set [4] concerns hCAR or Nrf2. Briefly: all curve and EC50 curve of selected compounds (FIG. 22-35). In kind it is cell-based. Details: key to Emax: fold activation; firefly luciferase normalized to Renilla. Particulars: figure legend values. As for the experimental part: Cell lysates were assayed for luciferase activity and normalized against the activity of the Renilla luciferase using a Dual-Luciferase Kit (Promega). […] Compound 2, DL7076, was selected for further evaluation based on its effects in activating hCAR and Nrf2 using the HepG2 cell reporter assay (FIGS. 37a-37c).

Usually EC50 stands for the concentration at which the effect is half-maximal. Regarding `O=C(NCCN=C=S)c1c(-c2ccc3ccccc3c2)nc2sccn12` [DL7076, N-(2-Isothiocyanatoethyl)-6-(naphthalen-2-yl)imidazo[2,1-b]thiazole-5-carboxamide], the “H2AX phosphorylation (DNA damage)” value in data set [1] was “effectively enhanced the CPA/DOX-mediated DNA damage”. In addition, the “HO-1 mRNA induction” value in data set [2] (H9c2, 10 μM, 24 hours, vs vehicle control) was 3- to 3.5 fold. In addition, the HO-1 protein induction result in data set [2] (H9c2, Western blot) is given as “robust induction in the expression of HO-1 was confirmed at a protein level”. Further, the “HO-1 protein expression in the presence of DOX” value in data set [2] (H9c2, pretreatment, DOX 2.5 μM) is on record as “concentration dependent protection in the expression of HO-1”. Further, the “CAR1+A activation, luciferase reporter” value in data set [3] (HepG2, 10 μM, 24 hours, vs CITCO 1 μM) is “activate CAR1+A in a comparable manner to the prototypical CAR activator, CITCO”. In addition, in data set [3] (HepG2, screening, FIG. 37a), the “hCAR luciferase activity (efficacy among compound hybrids)” value was “highest efficacy”. The Emax in data set [4] is on record as 2.5. The EC50 in data set [4] (read-out: EC50) was found to be 3.9 µM.
